Assay results reported in paper PMC4122966, “Novel VCP modulators mitigate major pathologies of rd10, a mouse model of retinitis pigmentosa” (Scientific Reports, 2014).

Experiments:
[1] = tested on: HeLa cells; assay: immunocytochemistry of laminin γ1 aggregation in tunicamycin-treated cells; format: cell-based
Description: (§1) Figure 4 KUSs and ATP each prevented a decrease of ATP levels and ameliorated ER stress in tunicamycin-treated cells. (a) Immunocytochemical analyses of HeLa cells by an anti-laminin γ1 antibody. HeLa cells were treated with 0.5 μg/ml of tunicamycin (Tm) for 5 hours in the presence of KUSs (50 μM), ATP (0.1, 0.3, and 1 mM), methylpyruvate (MePyr) (3 and 10 mM), or vehicle alone (DMSO). Then, cells were fixed and subjected to immunocytochemical analyses. Normally growing HeLa cells were also analyzed (Control). Scale bar, 10 μm. (b) Measurements of the relative amounts of ATP per cell. HeLa cells were treated with tunicamycin (Tm, 0.5 μg/ml) for 24 hours in the presence of KUSs (50 μM) or ATP (0.1 and 1 mM), or vehicle alone (DMSO), and were harvested. Then, ATP amounts from 1.5 × 10^5 cells were measured. * P < 0.05, ** P < 0.01. Error bars indicate SD. (c) Western blot analyses on CHOP. HeLa cells were treated with 0.5 μg/ml of tunicamycin for 5 hours in the presence of KUSs (50 μM), ATP (0.1, 0.3, and 1 mM), methylpyruvate (MePyr) (3 and 10 mM), or vehicle alone (-). Then, cells were harvested and subjected to western blot analyses. Actin served as a loading control. Complete scans of the different blots are presented in Supplementary Fig. 9.

[2] = tested on: tunicamycin-treated HeLa cells; assay: western blot of ER stress markers and phospho-Akt in tunicamycin-treated cells; format: cell-based; conditions: Tm 0.5 μg/ml, 5 hours, 0.1 mM ATP
Description: Figure 2 Prevention of cell death and ER stress by KUSs. (a) Photographs of HeLa cells, cultured with DMSO (DMSO) or KUSs (KUS94, KUS121, and KUS187, 20 μM each) for 41 hours in low glucose (0.2 g/l) medium. Scale bar, 100 μm. (b–e) WST (water-soluble tetrazolium salts) values reflecting relative live cell numbers are shown, as optical density (OD) at 450 nm. Error bars indicate SD. (b) WST values of HeLa cells, cultured in low glucose (0.2 g/l) with DMSO (control) or KUSs (50 μM for KUS121; 20 μM for KUS69, KUS94, and KUS187, n = 3) for 41 hours. (c) Cell viability, indicated by WST values of HeLa cells, cultured with tunicamycin (Tm) (0.2 μg/ml) for 41 hours with KUSs (20 μM each, n = 3). (d) WST values of HEK293 cells, cultured under serum-free conditions for 65 hours with DMSO (control) or KUSs (20 μM each, n = 3). *** P < 0.001, vs. DMSO control (Dunnett's test). (e) WST values of HeLa cells, cultured in low glucose (0.2 g/l) medium with different concentrations of KUS121 (5, 10, 20, and 50 μM, n = 3) for 41 hours. ** P = 0.008, *** P < 0.001, vs. DMSO control (Dunnett's test). […]
Figure 4 KUSs and ATP each prevented a decrease of ATP levels and ameliorated ER stress in tunicamycin-treated cells. […] Normally growing HeLa cells were also analyzed (Control). […] Then, ATP amounts from 1.5 × 10^5 cells were measured. * P < 0.05, ** P < 0.01. […]

[3] = tested on: HeLa cells; assay: relative ATP amounts per cell in tunicamycin-treated cells; format: cell-based; conditions: Tm 0.5 μg/ml, 24 hours, ATP 0.1 and 1 mM
Description: as §1

[4] = tested on: VCP; set-up: method as in PMID 21383145; conditions: reported value; read-out: in vitro IC50 (half maximal inhibitory concentration) for VCP; cited from earlier work
[5] = tested on: cellular VCP functions; assay: immunoblot of ubiquitinated proteins, CHOP (ER stress) and LC3 (autophagy) in cultured cells; format: cell-based
Excerpt: (§2) Figure 1 Structures and characterization of KUSs, novel VCP modulators. (a) Structures and IC50 values of KUS11, KUS31, KUS69, KUS94, KUS121, and KUS187. […] (b) ATPase activity assays of recombinant human […], comparing KUSs and DBeQ. (c) Immunoblot analysis of ubiquitinated proteins, an ER stress marker (CHOP), and an autophagy indicator (LC3), comparing KUSs and DBeQ. As a control, MG132, a proteasome inhibitor, was used for the analysis. Actin served as a loading control. Complete scans of the different blots are presented in Supplementary Fig. 7. (d) Comparison of KUSs and DBeQ for cell death-inducing activities. HeLa cells were treated with 50 μM DBeQ or KUSs for 24 hours. […]

[6] = tested on: HeLa cells; assay: cell death-inducing activity; format: cell-based; conditions: 50 μM, 24 hours
Excerpt: as §2

SMILES	aggregation of laminin γ1 ([1]; HeLa, Tm 0.5 μg/ml, 5 hours, 0.1 mM ATP)	aggregation of laminin γ1 ([1]; HeLa, Tm 0.5 μg/ml, 5 hours, 1 mM ATP)	aggregation of laminin γ1 ([1]; tunicamycin-treated HeLa cells, ATP at 0.3 to 1 mM)	induction of ER stress (CHOP induction) [2]	decrease of ATP levels in tunicamycin-treated cells [3]	IC50 [4] [nM]	induction of accumulation of ubiquitinated proteins, ER stress (CHOP), autophagy (LC3) [5]	induction of cell death [6]
Nc1ncnc2c1ncn2[C@@H]1O[C@H](COP(=O)(O)OP(=O)(O)OP(=O)(O)O)[C@@H](O)[C@H]1O [ATP]	ineffective in preventing the aggregation of laminin γ1	clearly prevented the aggregation of laminin γ1	prevented the aggregation of laminin γ1	dampen the induction of ER stress	prevented decreases of ATP levels			
c1ccc(CNc2nc(NCc3ccccc3)c3ccccc3n2)cc1 [DBeQ, reference compound]						1000	induced accumulation of ubiquitinated proteins, ER stress, autophagy	eventually cell death
